# Test results as given in ChEMBL document CHEMBL5528074 (J Med Chem, 2024).
# What was measured:
# [1] = target: G-protein coupled receptor 183 (Homo sapiens, UniProt P32249)
# Description: Antagonist activity at GPR183 (unknown origin) transfected in HEK293 cells incubated for 30 mins by Glosensor cAMP assay
# [2] = Metabolic stability in mouse liver microsomes assessed as intrinsic clearance; format: ADME, Microsome; conditions: read-out: CLH
# [3] = Half life in C57BL/6 mouse at 1 mg/kg, iv measured upto 24 hrs by LC-MS/MS analysis; format: ADME, organism-based; conditions: in vivo
# [4] = Cmax in C57BL/6 mouse at 1 mg/kg, iv measured upto 24 hrs by LC-MS/MS analysis; format: ADME, organism-based; conditions: in vivo
# [5] = AUC infinity in C57BL/6 mouse at 1 mg/kg, iv measured upto 24 hrs by LC-MS/MS analysis; format: ADME, organism-based; conditions: in vivo
# [6] = Apparent volume of distribution in C57BL/6 mouse at 1 mg/kg, iv measured upto 24 hrs by LC-MS/MS analysis; format: ADME, organism-based; conditions: in vivo, read-out: Vz
# [7] = Clearance in C57BL/6 mouse at 1 mg/kg, iv measured upto 24 hrs by LC-MS/MS analysis; format: ADME, organism-based; conditions: in vivo
# [8] = Half life in C57BL/6 mouse at 3 mg/kg, po measured upto 24 hrs by LC-MS/MS analysis; format: ADME, organism-based; conditions: in vivo
# [9] = Cmax in C57BL/6 mouse at 3 mg/kg, po measured upto 24 hrs by LC-MS/MS analysis; format: ADME, organism-based; conditions: in vivo
# [10] = AUC infinity in C57BL/6 mouse at 3 mg/kg, po measured upto 24 hrs by LC-MS/MS analysis; format: ADME, organism-based; conditions: in vivo
# [11] = Oral bioavailability in C57BL/6 mouse at 3 mg/kg measured upto 24 hrs by LC-MS/MS analysis; format: ADME, organism-based; conditions: in vivo
# U-937 = assay: Antimigratory activity against human U-937 cells assessed as inhibition of 7alpha,25-dihydroxycholesterol induced cell migration by CCK-8 method; format: functional, cell-based
# Chain of G-protein coupled receptor 183 (P32249 whole entry): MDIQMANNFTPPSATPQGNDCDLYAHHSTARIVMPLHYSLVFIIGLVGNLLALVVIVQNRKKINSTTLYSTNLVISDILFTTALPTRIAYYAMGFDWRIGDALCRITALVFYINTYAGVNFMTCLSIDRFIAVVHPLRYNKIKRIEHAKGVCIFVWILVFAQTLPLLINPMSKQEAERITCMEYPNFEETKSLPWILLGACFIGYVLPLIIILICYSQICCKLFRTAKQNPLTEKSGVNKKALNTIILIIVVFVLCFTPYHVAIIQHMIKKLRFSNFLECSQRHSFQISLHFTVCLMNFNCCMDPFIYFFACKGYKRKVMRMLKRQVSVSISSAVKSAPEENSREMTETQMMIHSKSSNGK
IC50 [1] [nM],SMILES,further results
19.7,COc1ccc(NC(=O)CC2CCN(C(=O)/C=C/c3ccc(Br)cc3)CC2)cc1,–
5.7,COc1ccc(NC(=O)C(F)(F)C2CCN(C(=O)/C=C/c3ccc(Br)cc3)CC2)cc1,–
442,Cn1cnc2cc(C(=O)N3CCN(C(=O)/C=C/c4ccc(Br)cc4)CC3)ccc21,–
8310,Nc1nc2ccc(C(=O)N3CCN(C(=O)/C=C/c4ccc(F)cc4F)CC3)cc2s1,–
> 10000,COc1ccc(C(=O)N2CC3CCC2CN3C(=O)/C=C/c2ccc(Br)cc2)cc1 (stereo not drawn),–
7.9,Cn1ccc2ccc(C(=O)N3CCN(C(=O)/C=C/c4ccc(Br)cc4)CC3)cc21,–
–,O=C(COc1ccc2ccccc2c1)N1CCN(C(=O)Cc2ccccc2)CC1,microsomal CLint [2]: 301 µL/min/mg
30.1,Nc1nc2ccc(C(=O)N3CCN(C(=O)/C=C/c4ccc(C(F)(F)F)cc4)CC3)cc2s1,–
> 10000,COc1ccc(C(=O)NC23CC(NC(=O)/C=C/c4ccc(Br)cc4)(C2)C3)cc1,–
–,COc1ccc(C(=O)N2CCN(C(=O)/C=C/c3ccc(Br)cc3)CC2)cc1,half-life [3]: 1.17 h; Cmax [4]: 612 ng/mL; AUC(0-inf) [5]: 966 ng·h/mL; Vd [6]: 1.75 L/kg; clearance [7]: 17.3 mL/min/kg; half-life [8]: 2.19 h; Cmax [9]: 640 ng/mL; AUC(0-inf) [10]: 2070 ng·h/mL; bioavailability [11]: 71.4%; IC50 (U-937): 4.5 nM; microsomal CLint [2]: 46 µL/min/mg
6.23,CNc1nc2ccc(C(=O)N3CCN(C(=O)/C=C/c4ccc(Br)cc4)CC3)cc2s1,–
866,Nc1nc2ccc(C(=O)N3CCN(C(=O)/C=C/c4ccc(F)cc4)CC3)cc2s1,–
54.2,COc1ccc(NC(=O)CC2CCN(C(=O)/C=C/c3ccc(Br)cc3)CC2(F)F)cc1 (stereo not drawn),–
> 10000,O=C(/C=C/c1ccc(Br)cc1)N1CCN(C(=O)c2ccc3nc(S)[nH]c3c2)CC1,–
54.9,CN(C)c1nc2ccc(C(=O)N3CCN(C(=O)/C=C/c4ccc(Br)cc4)CC3)cc2s1,–
15.9,Nc1nc2ccc(C(=O)N3CCN(C(=O)/C=C/c4ccc(Cl)cc4)CC3)cc2s1,–

SMILES,IC50 [1] [nM],further results
O=C(/C=C/c1ccc(Br)cc1)N1CCN(C(=O)c2ccc3ncsc3c2)CC1,3.05,–
O=C(/C=C/c1ccc(Br)cc1)N1CCN(C(=O)c2ccc3nc(C(F)(F)F)sc3c2)CC1,2.54,–
